Measured values published in patent publication EP0093484A2, “Antibacterial monic acid derivatives” (BEECHAM GROUP PLC, priority 1982, dated 1983).
In brackets after ≈: the same amount, converted by molar mass.

Experiments:
M. suipneumoniae LABER = experiment: Anti-mycoplasmal activity, MIC in Friis broth agarose; type: cell-based; conditions: Mesomycoplasma hyopneumoniae, 144 h, Friis broth solidified with 0.9% agarose, 6 days incubation at 37°C, read-out: MIC
Strep. agalactiae SPA1 = experiment: Veterinary bacteria, MIC by two fold serial dilution in agar; conditions: Streptococcus agalactiae, SPA1, 18 h
Procedure: (§1) The activity of the compounds of the Examples against various organisms important in veterinary infections was determined using two fold serial dilutions in Diagnostic Sensitivity Test Agar inoculated with 10^4 organisms.

[1] = system: Haemophilus influenzae Q1; experiment: Human bacteria, MIC by serial dilution in nutrient agar; type: cell-based; conditions: nutrient agar with 5% chocolated horse blood, 18 hours at 37°C, read-out: MIC
Strep. dysgalactiae SPD1 = experiment: Veterinary bacteria, MIC by two fold serial dilution in agar; conditions: Streptococcus dysgalactiae, SPD1, 18 h
Procedure: as §1

M. suipneumoniae UCD 1 = experiment: Anti-mycoplasmal activity, MIC in Friis broth agarose; type: cell-based; conditions: Mesomycoplasma hyopneumoniae, UCD1, 144 h, Friis broth solidified with 0.9% agarose, 6 days incubation at 37°C, read-out: MIC
Bacillus subtilis 6633 = experiment: Human bacteria, MIC by serial dilution in nutrient agar; type: cell-based; conditions: nutrient agar with 5% chocolated horse blood, 18 hours at 37°C, read-out: MIC
K. aerogenes A = experiment: as above; type: cell-based; conditions: Klebsiella aerogenes, nutrient agar with 5% chocolated horse blood, 18 hours at 37°C, read-out: MIC
M. suipneumoniae HK(2) = experiment: Anti-mycoplasmal activity, MIC in Friis broth agarose; type: cell-based; conditions: Mesomycoplasma hyopneumoniae, 144 h, Friis broth solidified with 0.9% agarose, 6 days incubation at 37°C, read-out: MIC
M. bovis NCTC 10131 = experiment: microbe, parasite or virus in culture; type: cell-based; conditions: NCTC10131, 144 h
[2] = system: M. bovigenitalium ATCC 14173; experiment: Anti-mycoplasmal activity, MIC in Friis broth agarose; type: cell-based; conditions: 144 h, Friis broth solidified with 0.9% agarose, 6 days incubation at 37°C, read-out: MIC
[3] = system: Corynebacterium pyogenes CY1; experiment: Veterinary bacteria, MIC by two fold serial dilution in agar; conditions: CY1, 18 h
Procedure: as §1

Strep. uberis SPU1 = experiment: as above; conditions: Streptococcus uberis, SPU1, 18 h
Procedure: as §1

M. suipneumoniae MS16 = experiment: Anti-mycoplasmal activity, MIC in Friis broth agarose; type: cell-based; conditions: Mesomycoplasma hyopneumoniae, 144 h, Friis broth solidified with 0.9% agarose, 6 days incubation at 37°C, read-out: MIC
[4] = system: Staph. aureus 152 (pen. sens.); experiment: Veterinary bacteria, MIC by two fold serial dilution in agar; conditions: Staphylococcus aureus, 18 h
Procedure: as §1

E. coli ESS = experiment: Human bacteria, MIC by serial dilution in nutrient agar; type: cell-based; conditions: Escherichia coli, nutrient agar with 5% chocolated horse blood, 18 hours at 37°C, read-out: MIC
E. coli NCTC 10418 [5] = experiment: as above; type: cell-based; conditions: Escherichia coli, NCTC10418; E. coli NCTC 10418 (human panel); nutrient agar with 5% chocolated horse blood; 18 hours at 37°C; read-out: MIC
P. mirabilis 889 = experiment: as above; type: cell-based; conditions: Proteus mirabilis, nutrient agar with 5% chocolated horse blood, 18 hours at 37°C, read-out: MIC
Staph. aureus Russell = experiment: as above; type: cell-based; conditions: Staphylococcus aureus, nutrient agar with 5% chocolated horse blood, 18 hours at 37°C, read-out: MIC
Past. multocida PA2 = experiment: Veterinary bacteria, MIC by two fold serial dilution in agar; conditions: Pasteurella multocida, PA2, 18 h
Procedure: as §1

M. pneumoniae ATCC 15492 = experiment: Anti-mycoplasmal activity, MIC in Friis broth agarose; type: cell-based; conditions: Mycoplasmoides pneumoniae, ATCC15492, 144 h, Friis broth solidified with 0.9% agarose, 6 days incubation at 37°C, read-out: MIC
[6] = system: Corynebacterium xerosis 9755; experiment: Human bacteria, MIC by serial dilution in nutrient agar; type: cell-based; conditions: nutrient agar with 5% chocolated horse blood, 18 hours at 37°C, read-out: MIC
[7] = system: Pasteurella multocida 1633; experiment: as above; type: cell-based; conditions: nutrient agar with 5% chocolated horse blood, 18 hours at 37°C, read-out: MIC
Past. multocida PA1 = experiment: Veterinary bacteria, MIC by two fold serial dilution in agar; conditions: Pasteurella multocida, PA1, 18 h
Procedure: as §1

M. suipneumoniae Str. 11 = experiment: Anti-mycoplasmal activity, MIC in Friis broth agarose; type: cell-based; conditions: Mesomycoplasma hyopneumoniae, 144 h, Friis broth solidified with 0.9% agarose, 6 days incubation at 37°C, read-out: MIC
M. suipneumoniae JF 435 = experiment: as above; type: cell-based; conditions: Mesomycoplasma hyopneumoniae, JF435, 144 h, Friis broth solidified with 0.9% agarose, 6 days incubation at 37°C, read-out: MIC
E. coli NCTC 10418 [8] = experiment: Veterinary bacteria, MIC by two fold serial dilution in agar; conditions: Escherichia coli, NCTC10418, 18 h
Procedure: as §1

[9] = system: Strep. suis (group D) SPS11; experiment: as above; conditions: Streptococcus suis, 18 h
Procedure: as §1

[10] = system: M. suipneumoniae ATCC 25095; experiment: Anti-mycoplasmal activity, MIC in Friis broth agarose; type: cell-based; conditions: Mesomycoplasma hyopneumoniae, ATCC25095, 144 h, Friis broth solidified with 0.9% agarose, 6 days incubation at 37°C, read-out: MIC
Sarcina lutea 8340 = experiment: Human bacteria, MIC by serial dilution in nutrient agar; type: cell-based; conditions: Micrococcus luteus, nutrient agar with 5% chocolated horse blood, 18 hours at 37°C, read-out: MIC
Staph. aureus W2827 = experiment: as above; type: cell-based; conditions: Staphylococcus aureus, nutrient agar with 5% chocolated horse blood, 18 hours at 37°C, read-out: MIC
[11] = system: M. suipneumoniae J2206/183b; experiment: Anti-mycoplasmal activity, MIC in Friis broth agarose; type: cell-based; conditions: Mesomycoplasma hyopneumoniae, 144 h, Friis broth solidified with 0.9% agarose, 6 days incubation at 37°C, read-out: MIC
[12] = system: M. suipneumoniae NCTC 10110; experiment: as above; type: cell-based; conditions: Mesomycoplasma hyopneumoniae, NCTC10110, 144 h, Friis broth solidified with 0.9% agarose, 6 days incubation at 37°C, read-out: MIC
[13] = system: Haemophilus influenzae Wy21; experiment: Human bacteria, MIC by serial dilution in nutrient agar; type: cell-based; conditions: nutrient agar with 5% chocolated horse blood, 18 hours at 37°C, read-out: MIC
Strep. faecalis I = experiment: as above; type: cell-based; conditions: Enterococcus faecalis, nutrient agar with 5% chocolated horse blood, 18 hours at 37°C, read-out: MIC
Staph. aureus Oxford = experiment: Veterinary bacteria, MIC by two fold serial dilution in agar; conditions: Staphylococcus aureus, 18 h
Procedure: as §1

M. hyorhinis ATCC 23234 = experiment: Anti-mycoplasmal activity, MIC in Friis broth agarose; type: cell-based; conditions: Mesomycoplasma hyorhinis, ATCC23234, 144 h, Friis broth solidified with 0.9% agarose, 6 days incubation at 37°C, read-out: MIC
[14] = system: M. hyosynoviae ATCC 25591; experiment: as above; type: cell-based; conditions: 144 h, Friis broth solidified with 0.9% agarose, 6 days incubation at 37°C, read-out: MIC
Bord. bronchiseptica BO9 = experiment: Veterinary bacteria, MIC by two fold serial dilution in agar; conditions: Bordetella bronchiseptica, BO9, 18 h
Procedure: as §1

| Structure (SMILES) | MIC (M. suipneumoniae LABER) [µg/mL] | MIC (Strep. agalactiae SPA1) [µg/mL] | MIC [1] [µg/mL] | MIC (Strep. dysgalactiae SPD1) [µg/mL] | MIC (M. suipneumoniae UCD 1) [µg/mL] | MIC (Bacillus subtilis 6633) [µg/mL] | MIC (K. aerogenes A) [µg/mL] | MIC (M. suipneumoniae HK(2)) [µg/mL] | MIC (M. bovis NCTC 10131) [µg/mL] | MIC [2] [µg/mL] | MIC [3] [µg/mL] | MIC (Strep. uberis SPU1) [µg/mL] | MIC (M. suipneumoniae MS16) [µg/mL] | MIC [4] [µg/mL] | MIC (E. coli ESS) [µg/mL] | MIC (E. coli NCTC 10418 [5]) [µg/mL] | MIC (P. mirabilis 889) [µg/mL] | MIC (Staph. aureus Russell) [µg/mL] | MIC (Past. multocida PA2) [µg/mL] | MIC (M. pneumoniae ATCC 15492) [µg/mL] | also measured |
| --- | --- | --- | --- | --- | --- | --- | --- | --- | --- | --- | --- | --- | --- | --- | --- | --- | --- | --- | --- | --- | --- |
| CC(=CC(=O)OCc1cccc([S+](C)[O-])c1)CC1OCC(CC2OC2C(C)C(C)O)C(O)C1O (stereo not shown) [Example 6, m-Methylsulfinylbenzyl monate A] | 5 (≈ 10.1 µM) | 20 (≈ 40.3 µM) | 2.5 (≈ 5.03 µM) | 20 (≈ 40.3 µM) | 10 (≈ 20.1 µM) | 12.5 (≈ 25.2 µM) | > 100 | 10 (≈ 20.1 µM) | 0.25 (≈ 0.503 µM) | 0.25 (≈ 0.503 µM) | > 80 | 5 (≈ 10.1 µM) | 5 (≈ 10.1 µM) | 5 (≈ 10.1 µM) | 25 (≈ 50.3 µM) | > 100 | > 100 | 12.5 (≈ 25.2 µM) | 20 (≈ 40.3 µM) | 5 (≈ 10.1 µM) | MIC [6]: > 100 µg/mL; MIC [7]: 25 µg/mL (≈ 50.3 µM); MIC (Past. multocida PA1): 80 µg/mL (≈ 161 µM); MIC (M. suipneumoniae Str. 11): 5 µg/mL (≈ 10.1 µM); MIC (M. suipneumoniae JF 435): 10 µg/mL (≈ 20.1 µM); MIC (E. coli NCTC 10418 [8]): > 80 µg/mL; MIC [9]: > 80 µg/mL; MIC [10]: 5 µg/mL (≈ 10.1 µM); MIC (Sarcina lutea 8340): > 100 µg/mL; MIC (Staph. aureus W2827): 12.5 µg/mL (≈ 25.2 µM); MIC [11]: 10 µg/mL (≈ 20.1 µM); MIC [12]: 10 µg/mL (≈ 20.1 µM); MIC [13]: 2.5 µg/mL (≈ 5.03 µM); MIC (Strep. faecalis I): > 100 µg/mL; MIC (Staph. aureus Oxford): 5 µg/mL (≈ 10.1 µM); MIC (M. hyorhinis ATCC 23234): 5 µg/mL (≈ 10.1 µM); MIC [14]: 5 µg/mL (≈ 10.1 µM); MIC (Bord. bronchiseptica BO9): > 80 µg/mL |
| CC(=CC(=O)OCc1cccc(S(C)(=O)=O)c1)CC1OCC(CC2OC2C(C)C(C)O)C(O)C1O (stereo not shown) [Example 7, m-Methylsulfonylbenzyl monate A] | 0.5 (≈ 0.975 µM) | 2.5 (≈ 4.88 µM) | 0.5 (≈ 0.975 µM) | 1.25 (≈ 2.44 µM) | 1 (≈ 1.95 µM) | 2.5 (≈ 4.88 µM) | > 100 | 1 (≈ 1.95 µM) | 0.025 (≈ 0.0488 µM) | 0.05 (≈ 0.0975 µM) | > 80 | 0.625 (≈ 1.22 µM) | 0.5 (≈ 0.975 µM) | 2.5 (≈ 4.88 µM) | 2.5 (≈ 4.88 µM) | > 100 | > 100 | 5 (≈ 9.75 µM) | 1.25 (≈ 2.44 µM) | 2.5 (≈ 4.88 µM) | MIC [6]: > 100 µg/mL; MIC [7]: 2.5 µg/mL (≈ 4.88 µM); MIC (Past. multocida PA1): 2.5 µg/mL (≈ 4.88 µM); MIC (M. suipneumoniae Str. 11): 0.5 µg/mL (≈ 0.975 µM); MIC (M. suipneumoniae JF 435): 1 µg/mL (≈ 1.95 µM); MIC (E. coli NCTC 10418 [8]): > 80 µg/mL; MIC [9]: 20 µg/mL (≈ 39 µM); MIC [10]: 0.5 µg/mL (≈ 0.975 µM); MIC (Sarcina lutea 8340): > 100 µg/mL; MIC (Staph. aureus W2827): 5 µg/mL (≈ 9.75 µM); MIC [11]: 1 µg/mL (≈ 1.95 µM); MIC [12]: 1 µg/mL (≈ 1.95 µM); MIC [13]: 0.5 µg/mL (≈ 0.975 µM); MIC (Strep. faecalis I): > 100 µg/mL; MIC (Staph. aureus Oxford): 2.5 µg/mL (≈ 4.88 µM); MIC (M. hyorhinis ATCC 23234): 0.5 µg/mL (≈ 0.975 µM); MIC [14]: 0.25 µg/mL (≈ 0.488 µM); MIC (Bord. bronchiseptica BO9): 20 µg/mL (≈ 39 µM) |
